Measurements taken from the supplement of paper PMC8671470.

Tests used:
Settings in all cases: 72 h
[1] = system: myeloid leukemia patient primary cells Pat.6; assay: cell viability (% survival relative to DMSO control); higher = less cytotoxic
Summary of the method: (§1)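 Where an area under the curve appears, it was computed with the drc and PharmacoGx R packages from log-logistic fits. Those fits used four parameters. The underlying viability data came from CellTiter-Glo after 72 h, normalised to DMSO and 10 μM proteasome-inhibitor wells, with thawed, Ficoll-purified AML or CML patient mononuclear cells at 10,000 cells/well in RPMI 1640 with 10% FBS on 384-well plates pre-printed with 70 compounds at five tenfold concentrations (1–10,000 nM) in duplicate.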

[2] = system: myeloid leukemia patient primary cells Pat.3; assay: as above
Summary of the method: as §1

[3] = system: myeloid leukemia patient primary cells Pat.8; assay: as above
Summary of the method: as §1

[4] = system: myeloid leukemia patient primary cells Pat.15; assay: as above
Summary of the method: as §1

[5] = system: myeloid leukemia patient primary cells Pat.4; assay: as above
Summary of the method: as §1

[6] = system: myeloid leukemia patient primary cells Pat.10; assay: as above
Summary of the method: as §1

[7] = system: myeloid leukemia patient primary cells Pat.11; assay: as above
Summary of the method: as §1

[8] = system: myeloid leukemia patient primary cells Pat.12; assay: as above
Summary of the method: as §1

[9] = system: myeloid leukemia patient primary cells Pat.9; assay: as above
Summary of the method: as §1

[10] = system: myeloid leukemia patient primary cells Pat.14; assay: as above
Summary of the method: as §1

[11] = system: myeloid leukemia patient primary cells Pat.5; assay: as above
Summary of the method: as §1

[12] = system: myeloid leukemia patient primary cells Pat.7; assay: as above
Summary of the method: as §1

[13] = system: myeloid leukemia patient primary cells Pat.1; assay: as above
Summary of the method: as §1

[14] = system: myeloid leukemia patient primary cells Pat.13; assay: as above
Summary of the method: as §1

[15] = system: myeloid leukemia patient primary cells Pat.2; assay: as above
Summary of the method: as §1

Mono-Mac-6 = assay: cell viability (% survival relative to DMSO control, bortezomib = 0%); higher = less cytotoxic
Summary of the method: (§2)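 Percent survival is reported as the mean of duplicate wells. Cells from 10 AML and 5 CML lines were plated in 384-well plates containing compounds at 1, 10, 100, 1000 or 10000 nM and kept for 72 h at 37 °C in 5% CO2. Readout used CellTiter-Glo luminescence, scaled so that vehicle equals 100% and a 10 µM positive control equals 0%.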

KU-812 = assay: as above
Summary of the method: as §2

NOMO-1 = assay: as above
Summary of the method: as §2

THP-1 = assay: as above
Summary of the method: as §2

## O=C(Cc1cccc(OC(F)(F)F)c1)Nc1ccc(CCCCc2nnc(NC(=O)Cc3ccccn3)s2)nn1 [CB-839]
[1]; 1 nM
  cell viability: 91.7%
[1]; 10 nM
  cell viability: 94.9%
[1]; 100 nM
  cell viability: 79.1%
[1]; 1000 nM
  cell viability: 84.9%
[1]; 10000 nM
  cell viability: 90.9%
[2]; 1 nM
  cell viability: 67.7%
[2]; 10 nM
  cell viability: 39.5%
[2]; 100 nM
  cell viability: 11.1%
[2]; 1000 nM
  cell viability: 9.36%
[2]; 10000 nM
  cell viability: 14.5%
[3]; 1 nM
  cell viability: 82.7%
[3]; 10 nM
  cell viability: 86.7%
[3]; 100 nM
  cell viability: 76.8%
[3]; 1000 nM
  cell viability: 87.8%
[3]; 10000 nM
  cell viability: 81%
[4]; 1 nM
  cell viability: 92.4%
[4]; 10 nM
  cell viability: 89.2%
[4]; 100 nM
  cell viability: 73.2%
[4]; 1000 nM
  cell viability: 40.2%
[4]; 10000 nM
  cell viability: 36.6%
[5]; 1 nM
  cell viability: 92%
[5]; 10 nM
  cell viability: 91.5%
[5]; 100 nM
  cell viability: 57.4%
[5]; 1000 nM
  cell viability: 61%
[5]; 10000 nM
  cell viability: 75.4%
[6]; 1 nM
  cell viability: 52.5%
[6]; 10 nM
  cell viability: 47.9%
[6]; 100 nM
  cell viability: 24.4%
[6]; 1000 nM
  cell viability: 44.8%
[6]; 10000 nM
  cell viability: 68.9%
[7]; 1 nM
  cell viability: 94.1%
[7]; 10 nM
  cell viability: 88.4%
[7]; 100 nM
  cell viability: 85.1%
[7]; 1000 nM
  cell viability: 74.3%
[7]; 10000 nM
  cell viability: 90.7%
[8]; 1 nM
  cell viability: 86.8%
[8]; 10 nM
  cell viability: 89.6%
[8]; 100 nM
  cell viability: 88%
[8]; 1000 nM
  cell viability: 80.1%
[8]; 10000 nM
  cell viability: 99.4%
[9]; 1 nM
  cell viability: 62.2%
[9]; 10 nM
  cell viability: 35.3%
[9]; 100 nM
  cell viability: 1.99%
[9]; 1000 nM
  cell viability: 7.13%
[9]; 10000 nM
  cell viability: 14.1%
[10]; 1 nM
  cell viability: 75.6%
[10]; 10 nM
  cell viability: 69.4%
[10]; 100 nM
  cell viability: 39.7%
[10]; 1000 nM
  cell viability: 41.4%
[10]; 10000 nM
  cell viability: 78.6%
[11]; 1 nM
  cell viability: 17.1%
[11]; 10 nM
  cell viability: 53.9%
[11]; 100 nM
  cell viability: 2.39%
[11]; 1000 nM
  cell viability: 5.69%
[11]; 10000 nM
  cell viability: 19.5%
[12]; 1 nM
  cell viability: 58.6%
[12]; 10 nM
  cell viability: 74.7%
[12]; 100 nM
  cell viability: 6.64%
[12]; 1000 nM
  cell viability: 21.2%
[12]; 10000 nM
  cell viability: 38.3%
[13]; 1 nM
  cell viability: 84.7%
[13]; 10 nM
  cell viability: 81.3%
[13]; 100 nM
  cell viability: 46.7%
[13]; 1000 nM
  cell viability: 56.4%
[13]; 10000 nM
  cell viability: 59.1%
[14]; 1 nM
  cell viability: 85.3%
[14]; 10 nM
  cell viability: 88.9%
[14]; 100 nM
  cell viability: 69%
[14]; 1000 nM
  cell viability: 64.6%
[14]; 10000 nM
  cell viability: 84%
[15]; 1 nM
  cell viability: 86.8%
[15]; 10 nM
  cell viability: 91.3%
[15]; 100 nM
  cell viability: 78.1%
[15]; 1000 nM
  cell viability: 87%
[15]; 10000 nM
  cell viability: 88.3%
Mono-Mac-6; 1 nM
  cell viability: 102%
Mono-Mac-6; 10 nM
  cell viability: 84.5%
Mono-Mac-6; 100 nM
  cell viability: 85%
Mono-Mac-6; 1000 nM
  cell viability: 78.3%
Mono-Mac-6; 10000 nM
  cell viability: 82%
KU-812; 1 nM
  cell viability: 101%
KU-812; 10 nM
  cell viability: 81.8%
KU-812; 100 nM
  cell viability: 72.2%
KU-812; 1000 nM
  cell viability: 67.2%
KU-812; 10000 nM
  cell viability: 66.4%
NOMO-1; 1 nM
  cell viability: 103%
NOMO-1; 10 nM
  cell viability: 91.4%
NOMO-1; 100 nM
  cell viability: 76.5%
NOMO-1; 1000 nM
  cell viability: 79.2%
NOMO-1; 10000 nM
  cell viability: 68.2%
THP-1; 1 nM
  cell viability: 99.4%
THP-1; 10 nM
  cell viability: 96.7%
THP-1; 100 nM
  cell viability: 88.9%
THP-1; 1000 nM
  cell viability: 82.9%
THP-1; 10000 nM
  cell viability: 83.7%
